{"source": "BindingDB's records for doi:10.1021/jm049408n", "about": "(University of Camerino, 2005)", "target": "Adenosine receptor A3 (Bos taurus)", "assay": "Displacement of [125I]AB-MECA from adenosine A3 receptors in bovine cortical membranes"}
{"compound": "CNC(=O)[C@H]1O[C@@H](n2cnc3c(NCc4cccc(I)c4)ncnc32)[C@](C)(O)[C@@H]1O", "note": "[3,4-Dihydroxy-5-[6-(3-iodo-benzylamino)-purin-9-yl]-4-methyl-tetrahydro-furan-2-carboxylic acid methylamide]", "values": [{"measurement": "Ki", "result": 240, "unit": "nM"}]}
